Measurements taken from patent US8148391B2 (Cephalon, Inc., priority 2006, dated 2012).
Where two headings read alike, the source gives them in different places. Blank lines part the entries; values can stand above or below the compound they belong to.

Experiments:
[1] = biological target: T1, baculovirus-expressed ALK (Homo sapiens, UniProt Q9UM73); test: ALK Kinase Assay (ELISA-type, time-resolved fluorescence); assay type: biochemical
T1 construct: host or cells: baculovirus expression system
Procedure, shortened: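 Wells were coated with phospholipase C-γ at 10 μg/mL in Tris-buffered saline. Adding 30 ng/ml enzyme started the reaction, which ran at 37° C for 15 minutes before Eu-N1 PT66 antibody detection. Percent inhibition versus log10 concentration gave IC50 by variable-slope fit.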

[2] = biological target: T2, c-Met (cytoplasmic domain) (Homo sapiens, UniProt P08581); test: c-Met Kinase Assay (same methods as for ALK, with modifications); assay type: biochemical
T2 construct: 10 ng/mL c-Met (cytoplasmic domain, Invitrogen Corporation #PV3143); purchased Invitrogen Corporation PV3143
Procedure, shortened: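 IC50 values were fitted by variable-slope sigmoidal regression of percent inhibition against log compound concentration. Phosphorylation was read with Eu-N1 PT66 antibody after a 15 min, 37 °C reaction. The reaction was initiated with 10 ng/mL c-Met cytoplasmic domain on wells coated with 10 μg/mL PLC-γ in TBS.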

[3] = 1 μM ATP (Km level), read-out: ALK Activity (ALK Kinase Inhibition, IC50)
[4] = 1 μM ATP (Km level), read-out: cMet Activity (c-Met Kinase Inhibition, IC50)
[5] = 1 μM ATP (Km level), 30 ng/ml ALK, 37° C., 15 minutes, read-out: ALK Activity (ALK kinase inhibition, IC50 class)
[6] = 1 μM ATP (Km level), 10 ng/mL c-Met, read-out: cMet Activity (c-Met kinase inhibition, IC50 class)
[7] = ALK kinase inhibition, 1 μM ATP, read-out: ALK Activity
[8] = c-Met kinase inhibition, 1 μM ATP, read-out: cMet Activity
[9] = ALK kinase inhibition, 1 μM ATP (Km level), read-out: ALK Activity
[10] = c-Met kinase inhibition, 1 μM ATP (Km level), read-out: cMet Activity

T1 sequence (Q9UM73 19-1620): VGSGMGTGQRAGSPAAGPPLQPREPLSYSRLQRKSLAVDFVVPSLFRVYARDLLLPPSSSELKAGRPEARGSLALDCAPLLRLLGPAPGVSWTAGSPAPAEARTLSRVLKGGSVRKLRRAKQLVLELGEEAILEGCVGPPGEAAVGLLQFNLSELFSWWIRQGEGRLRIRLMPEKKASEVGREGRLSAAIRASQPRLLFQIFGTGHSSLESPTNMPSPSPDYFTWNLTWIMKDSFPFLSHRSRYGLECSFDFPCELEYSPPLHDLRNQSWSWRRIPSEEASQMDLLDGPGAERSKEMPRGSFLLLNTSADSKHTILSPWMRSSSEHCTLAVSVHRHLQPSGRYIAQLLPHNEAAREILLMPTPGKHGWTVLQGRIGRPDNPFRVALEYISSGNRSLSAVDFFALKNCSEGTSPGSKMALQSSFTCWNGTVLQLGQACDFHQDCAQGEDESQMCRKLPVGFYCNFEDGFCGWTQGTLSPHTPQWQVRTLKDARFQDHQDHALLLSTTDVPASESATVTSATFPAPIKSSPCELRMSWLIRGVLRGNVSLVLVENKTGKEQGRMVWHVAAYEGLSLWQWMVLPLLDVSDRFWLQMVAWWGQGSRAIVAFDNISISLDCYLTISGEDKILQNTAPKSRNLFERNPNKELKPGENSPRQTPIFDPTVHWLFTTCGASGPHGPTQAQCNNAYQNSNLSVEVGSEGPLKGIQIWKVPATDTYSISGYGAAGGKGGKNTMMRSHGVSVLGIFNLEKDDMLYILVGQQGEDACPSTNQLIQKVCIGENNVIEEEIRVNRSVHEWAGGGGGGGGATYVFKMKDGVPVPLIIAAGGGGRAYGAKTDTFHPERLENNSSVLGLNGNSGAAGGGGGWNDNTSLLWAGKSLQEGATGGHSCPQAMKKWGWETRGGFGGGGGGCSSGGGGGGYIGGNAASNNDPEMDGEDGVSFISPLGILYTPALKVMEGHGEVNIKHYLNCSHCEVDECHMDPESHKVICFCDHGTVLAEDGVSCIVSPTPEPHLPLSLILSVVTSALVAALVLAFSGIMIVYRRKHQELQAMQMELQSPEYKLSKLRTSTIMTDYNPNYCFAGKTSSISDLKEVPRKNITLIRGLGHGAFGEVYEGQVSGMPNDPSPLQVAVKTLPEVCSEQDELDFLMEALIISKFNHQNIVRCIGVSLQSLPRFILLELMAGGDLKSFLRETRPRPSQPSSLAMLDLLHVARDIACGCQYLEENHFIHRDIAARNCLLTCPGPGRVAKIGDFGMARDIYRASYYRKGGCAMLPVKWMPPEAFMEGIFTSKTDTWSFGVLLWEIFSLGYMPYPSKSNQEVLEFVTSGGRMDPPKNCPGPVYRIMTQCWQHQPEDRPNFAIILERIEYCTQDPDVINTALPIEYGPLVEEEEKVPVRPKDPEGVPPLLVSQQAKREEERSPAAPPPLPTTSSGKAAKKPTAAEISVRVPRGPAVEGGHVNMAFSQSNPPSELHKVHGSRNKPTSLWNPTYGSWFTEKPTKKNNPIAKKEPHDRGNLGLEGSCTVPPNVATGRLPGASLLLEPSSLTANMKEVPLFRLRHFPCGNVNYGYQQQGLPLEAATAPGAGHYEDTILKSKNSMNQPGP
T2 sequence (P08581 956-1390 limits assumed): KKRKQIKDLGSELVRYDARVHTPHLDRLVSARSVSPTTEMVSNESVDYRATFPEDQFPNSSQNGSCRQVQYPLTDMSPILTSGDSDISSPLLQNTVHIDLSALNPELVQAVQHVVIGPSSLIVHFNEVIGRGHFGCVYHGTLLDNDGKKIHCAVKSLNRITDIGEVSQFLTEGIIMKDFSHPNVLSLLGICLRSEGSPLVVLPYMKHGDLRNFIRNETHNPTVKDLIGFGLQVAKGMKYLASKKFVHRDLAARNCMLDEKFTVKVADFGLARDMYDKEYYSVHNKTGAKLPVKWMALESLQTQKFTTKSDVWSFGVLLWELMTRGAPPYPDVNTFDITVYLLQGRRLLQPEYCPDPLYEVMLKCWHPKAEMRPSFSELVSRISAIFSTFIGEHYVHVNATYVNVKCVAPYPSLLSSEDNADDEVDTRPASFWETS

- IC50 [1, 5]: 100 to 1000 nM
- IC50 [2, 6]: 100 to 1000 nM
Compound: CCOC(=O)N1CCCOc2cc(Nc3ncc(Cl)c(Nc4ccsc4C(=O)NC)n3)ccc21 [Example 1418, 3-[5-Chloro-4-(2-methylcarbamoyl-thiophen-3-ylamino)-pyrimidin-2-ylamino]-7,8-dihydro-6H-5-oxa-9-aza-benzocycloheptene-9-carboxylic acid ethyl ester]

- IC50 [1, 7]: 100 to 1000 nM
- IC50 [2, 8]: 100 to 1000 nM
Compound: CNC(=O)c1ccccc1Nc1nc(Nc2ccc3c(c2)N(C(=O)CN2CCCC2)CCCO3)ncc1Cl [Example 1706, 2-{5-Chloro-2-[9-(2-pyrrolidin-1-yl-acetyl)-6,7,8,9-tetrahydro-5-oxa-9-aza-benzocyclohepten-2-ylamino]-pyrimidin-4-ylamino}-N-methyl-benzamide]

- IC50 [1, 7]: 100 to 1000 nM
- IC50 [2, 8]: 100 to 1000 nM
Compound: COCCOc1cccc(F)c1Nc1nc(Nc2ccc3c(c2)CCOC(=O)N3C)ncc1Cl [Example 1778, 2-{5-Chloro-4-[2-fluoro-6-(2-methoxy-ethoxy)-phenylamino]-pyrimidin-2-ylamino}-5-methyl-8,9-dihydro-5H-7-oxa-5-aza-benzocyclohepten-6-one]

- IC50 [1, 7]: < 100 nM
- IC50 [2, 8]: 100 to 1000 nM
Compound: C#CCNC(=O)c1cccc(F)c1Nc1nc(Nc2ccc3c(c2)N(CCN2CCCC2)CCCC3(C)C)ncc1Cl [Example 1609, 2-{5-Chloro-2-[5,5-dimethyl-1-(2-pyrrolidin-1-yl-ethyl)-2,3,4,5-tetrahydro-1H-benzo[b]azepin-8-ylamino]-pyrimidin-4-ylamino}-3-fluoro-N-prop-2-ynyl-benzamide]

- IC50 [1, 5]: 100 to 1000 nM
- IC50 [2, 6]: 1000 to 10000 nM
Compound: COCCN1CCc2ccc(Nc3ncc(Cl)c(Nc4ccccc4C(=O)NCCCCN(C)C)n3)cc2CC1 [Example 1400, {5-Chloro-2-[3-(2-methoxy-ethyl)-2,3,4,5-tetrahydro-1H-benzo[d]azepin-7-ylamino]-pyrimidin-4-ylamino}-N-(4-dimethylamino-butyl)-benzamide]

- IC50 [1, 7]: < 100 nM
- IC50 [2, 8]: > 10000 nM
Compound: COc1cc(N2CCOCC2)ccc1Nc1nc(Nc2ccc3c(c2)N(CC(C)C)C(=O)CCC3(C)C)ncc1Cl [Example 1594, 8-[5-Chloro-4-(2-methoxy-4-morpholin-4-yl-phenylamino)-pyrimidin-2-ylamino]-1-isobutyl-5,5-dimethyl-1,3,4,5-tetrahydro-benzo[b]azepin-2-one]

- IC50 [1, 7]: < 100 nM
- IC50 [2, 8]: < 100 nM
Compound: CCN1CCNC(=O)c2ccc(Nc3ncc(Cl)c(Nc4ccccc4C(=O)NC)n3)cc21 [Example 1452, 2-[5-Chloro-2-(1-ethyl-5-oxo-2,3,4,5-tetrahydro-1H-benzo[e][1,4]diazepin-8-ylamino)-pyrimidin-4-ylamino]-N-methyl-benzamide]

- IC50 [1, 5]: < 100 nM
- IC50 [2, 6]: 100 to 1000 nM
Compound: CNC(=O)c1cc(-c2ccc(C#N)cc2)cc(F)c1Nc1nc(Nc2ccc3c(c2)NC(=O)CCC3)ncc1Cl [Example 1420, 4-[5-Chloro-2-(2-oxo-2,3,4,5-tetrahydro-1H-benzo[b]azepin-8-ylamino)-pyrimidin-4-ylamino]-4′-cyano-5-fluoro-biphenyl-3-carboxylic acid methyl amide]

- IC50 [1, 5]: < 100 nM
- IC50 [2, 6]: < 100 nM
Compound: C#CCNC(=O)c1ccccc1Nc1nc(Nc2ccc3c(c2)CCN(CCOC)CC3)ncc1Cl [Example 1387, 2-{5-Chloro-2-[3-(2-methoxy-ethyl)-2,3,4,5-tetrahydro-1H-benzo[d]azepin-7-ylamino]-pyrimidin-4-ylamino}-N-prop-2-ynyl-benzamide]

- IC50 [1, 7]: < 100 nM
- IC50 [2, 8]: 100 to 1000 nM
Compound: COc1cc2c(cc1Nc1ncc(Cl)c(Nc3ccccc3S(=O)(=O)N3CC[C@H](O)C3)n1)CCN(C[C@H](C)O)CC2 [Example 1555, (S)-1-(2-{5-Chloro-2-[3-((S)-2-hydroxy-propyl)-8-methoxy-2,3,4,5-tetrahydro-1H-3-benzazepin-7-ylamino]-pyrimidin-4-ylamino}-benzenesulfonyl)-pyrrolidin-3-ol]

The remaining lines, values behind:

Compound: CC(C)S(=O)(=O)c1ccccc1Nc1nc(Nc2cccc3c2OCCCC3(C)C)ncc1Cl [Example 878, 5-Chloro-N*2*-(5,5-dimethyl-2,3,4,5-tetrahydro-benzo[b]oxepin-9-yl)-N*4*-[2-(propane-2-sulfonyl)-phenyl]-pyrimidine-2,4-diamine]
- IC50 [1, 3]: 100 to 1000 nM
- IC50 [2, 4]: > 10000 nM

Compound: COc1c(Nc2ncc(Cl)c(N[C@H]3[C@@H](C(N)=O)[C@@H]4C=C[C@H]3C4)n2)ccc2c1CC[C@H](N1CCOCC1)CC2 [Example 881, (1S,2S,3R,4R)-3-[5-Chloro-2-((R)-1-methoxy-7-morpholin-4-yl-6,7,8,9-tetrahydro-5H-benzocyclohepten-2-ylamino)-pyrimidin-4-ylamino]-bicyclo[2.2.1]hept-5-ene-2-carboxylic acid amide]
- IC50 [1, 3]: < 100 nM
- IC50 ([2]; cMet Activity (c-Met Kinase Inhibition, IC50), 1 μM ATP (Km level)): > 10000 nM

Compound: COc1cc2c(cc1Nc1ncc(Cl)c(Nc3ccccc3S(=O)(=O)N3CCCC3)n1)CCC(NCCO)CC2 (stereo not drawn) [Example 1087, 2-(2-{5-Chloro-4-[2-(pyrrolidine-1-sulfonyl)-phenylamino]-pyrimidin-2-ylamino}-3-methoxy-6,7,8,9-tetrahydro-5H-benzocyclohepten-7-ylamino)-ethanol]
- IC50 [1, 5]: < 100 nM
- IC50 [2, 6]: 1000 to 10000 nM

Compound: 2-[5-Chloro-2-(4-oxo-1,2,3,4,5,6-hexahydro-benzo[b][1,5]diazocin-8-ylamino)-pyrimidin-4-ylamino]-N-methyl-benzenesulfonamide [Example 1304]
- IC50 [1, 5]: < 100 nM
- IC50 [2, 6]: 100 to 1000 nM

Compound: CNC(=O)c1ccccc1Nc1nc(Nc2ccc(OC)c3c2N(C)C(=O)CCC3)ncc1Cl [Example 123, 2-[5-Chloro-2-(6-methoxy-1-methyl-2-oxo-2,3,4,5-tetrahydro-1H-benzo[b]azepin-9-ylamino)-pyrimidin-4-ylamino]-N-methyl-benzamide]
- IC50 [1, 9]: 100 to 1000 nM
- IC50 [2, 10]: > 10000 nM

Compound: CCN1CCc2ccc(Nc3ncc([N+](=O)[O-])c(Nc4ccccc4C(=O)NC)n3)cc2CC1 [Example 193, 2-[2-(3-Ethyl-2,3,4,5-tetrahydro-1H-benzo[d]azepin-7-ylamino)-5-nitro-pyrimidin-4-ylamino]-N-methyl-benzamide]
- IC50 [1, 9]: < 100 nM
- IC50 [2, 10]: 100 to 1000 nM

Compound: COc1cccc(C(=O)NCCC#N)c1Nc1nc(Nc2ccc3c(c2)CCCC(=O)N3C)ncc1Cl [Example 1062, 2-[5-Chloro-2-(1-methyl-2-oxo-2,3,4,5-tetrahydro-1H-benzo[b]azepin-7-ylamino)-pyrimidin-4-ylamino]-N-(2-cyano-ethyl)-3-methoxy-benzamide]
- IC50 [1, 5]: > 10000 nM
- IC50 [2, 6]: 1000 to 10000 nM

Compound: CCN1CCc2ccc(Nc3ncc(F)c(Nc4ccccc4C(=O)NC)n3)cc2CC1 [Example 196, 2-[2-(3-Ethyl-2,3,4,5-tetrahydro-1H-benzo[d]azepin-7-ylamino)-5-fluoro-pyrimidin-4-ylamino]-N-methyl-benzamide]
- IC50 [1, 9]: < 100 nM
- IC50 [2, 10]: < 100 nM

Compound: COCCN1CCc2cc(Nc3ncc(Cl)c(Nc4ccc(OC)cc4-n4cccn4)n3)c(OC)cc2CC1 [Example 612, 5-Chloro-N*2*-[8-methoxy-3-(2-methoxy-ethyl)-2,3,4,5-tetrahydro-1H-benzo[d]azepin-7-yl]-N*4*-(4-methoxy-2-pyrazol-1-yl-phenyl)-pyrimidine-2,4-diamine]
- IC50 [1, 3]: < 100 nM
- IC50 [2, 4]: > 10000 nM

Compound: COC(CN1CCc2ccc(Nc3ncc(Cl)c(NC4C5C=CC(C5)C4C(N)=O)n3)cc2CC1)C(F)(F)F (mixture of isomers) [Example 338, (2-exo, 3-exo)-3-{5-Chloro-2-[3-((S)-3,3,3-trifluoro-2-methoxy-propyl)-2,3,4,5-tetrahydro-1H-benzo[d]azepin-7-ylamino]-pyrimidin-4-ylamino}-bicyclo[2.2.1]hept-5-ene-2-carboxylic acid amide]
- IC50 [1, 9]: < 100 nM
- IC50 [2, 10]: 100 to 1000 nM

Compound: COc1ccc(Nc2nc(Nc3cc4c(cc3OC)CCN(CC3COCCO3)CC4)ncc2Cl)c(-n2cccn2)c1 (stereo not drawn) [Example 636, 5-Chloro-N*2*-(3-[1,4]dioxan-2-ylmethyl-8-methoxy-2,3,4,5-tetrahydro-1H-benzo[d]azepin-7-yl)-N*4*-(4-methoxy-2-pyrazol-1-yl-phenyl)-pyrimidine-2,4-diamine]
- IC50 [1, 3]: < 100 nM
- IC50 [2, 4]: > 10000 nM

Compound: CCN1CCc2cc(Nc3ncc(Cl)c(Nc4ccccc4C(=O)NC)n3)c(OC)cc2CC1 [Example 48, 2-[5-Chloro-2-(3-ethyl-8-methoxy-2,3,4,5-tetrahydro-1H-benzo[d]azepin-7-ylamino)-pyrimidin-4-ylamino]-N-methyl-benzamide]
- IC50 [1, 9]: < 100 nM
- IC50 [2, 10]: 1000 to 10000 nM

Compound: OC1CCc2ccc(Nc3ncc(Cl)c(Nc4ccccc4-n4cccn4)n3)cc2CC1 (stereo not drawn) [Example 1035, 2-[5-Chloro-4-(2-pyrazol-1-yl-phenylamino)-pyrimidin-2-ylamino]-6,7,8,9-tetrahydro-5H-benzocyclohepten-7-ol]
- IC50 [1, 5]: < 100 nM
- IC50 [2, 6]: 100 to 1000 nM

Compound: CNC(=O)CN1CCc2cc(Nc3ncc(Cl)c(N[C@H]4[C@@H](C(N)=O)[C@@H]5C=C[C@H]4C5)n3)c(OC)cc2CC1 [Example 1124, (1S,2S,3R,4R)-3-[5-Chloro-2-(8-methoxy-3-methylcarbamoylmethyl-2,3,4,5-tetrahydro-1H-benzo[d]azepin-7-ylamino)-pyrimidin-4-ylamino]-bicyclo[2.2.1]hept-5-ene-2-carboxylic acid amide]
- IC50 [1, 5]: < 100 nM
- IC50 [2, 6]: > 10000 nM
